Test results as given in ChEMBL document CHEMBL4049398, “Microscale High-Throughput Experimentation as an Enabling Technology in Drug Discovery: Application in the Discovery of (Piperidinyl)pyridinyl-1H-benzimidazole Diacylglycerol Acyltransferase 1 Inhibitors” (J Med Chem, 2017).
≈ marks a conversion by molar mass, not a printed value.

Key:
[1] = target: T1, Diacylglycerol O-acyltransferase 1 (Homo sapiens, UniProt O75907); experiment: Inhibition of human DGAT1 expressed in yeast membrane fraction assessed as inhibition of triglyceride formation using diolein/oleoyl-CoA as substrate measured after 1 hr by 7-diethylamino-3-(4'-maleimidylphenyl)-4-methylcoumarin based fluorescence analysis; type: cell membranes
T1 sequence (O75907 whole entry): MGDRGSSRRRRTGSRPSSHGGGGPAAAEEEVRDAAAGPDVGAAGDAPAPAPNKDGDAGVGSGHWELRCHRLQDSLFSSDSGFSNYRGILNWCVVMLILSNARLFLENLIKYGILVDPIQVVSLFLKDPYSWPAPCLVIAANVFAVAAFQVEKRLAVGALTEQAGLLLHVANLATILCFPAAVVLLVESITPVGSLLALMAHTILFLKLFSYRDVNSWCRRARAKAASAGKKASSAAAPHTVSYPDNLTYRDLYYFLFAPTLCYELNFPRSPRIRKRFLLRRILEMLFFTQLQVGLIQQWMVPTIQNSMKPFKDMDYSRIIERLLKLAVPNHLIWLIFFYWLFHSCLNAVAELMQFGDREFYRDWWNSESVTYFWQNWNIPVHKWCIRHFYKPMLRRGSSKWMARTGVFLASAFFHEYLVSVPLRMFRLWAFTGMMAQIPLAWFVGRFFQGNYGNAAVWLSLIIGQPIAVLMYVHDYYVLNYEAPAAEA

Cytochrome P450 2C9 = Cytochrome P450 2C9 (Homo sapiens, UniProt P11712); experiment: Inhibition of CYP2C9 (unknown origin); type: ADME
[2] = Solubility of the compound at pH 2; type: physicochemical; conditions: buffer
Cytochrome P450 3A4 = Cytochrome P450 3A4 (Homo sapiens, UniProt P08684); experiment: Inhibition of CYP3A4 (unknown origin); type: ADME
[3] = target: T2, Nuclear receptor subfamily 1 group I member 2 (Homo sapiens, UniProt O75469); experiment: Inhibition of PXR (unknown origin); type: ADME
T2 sequence (O75469 whole entry): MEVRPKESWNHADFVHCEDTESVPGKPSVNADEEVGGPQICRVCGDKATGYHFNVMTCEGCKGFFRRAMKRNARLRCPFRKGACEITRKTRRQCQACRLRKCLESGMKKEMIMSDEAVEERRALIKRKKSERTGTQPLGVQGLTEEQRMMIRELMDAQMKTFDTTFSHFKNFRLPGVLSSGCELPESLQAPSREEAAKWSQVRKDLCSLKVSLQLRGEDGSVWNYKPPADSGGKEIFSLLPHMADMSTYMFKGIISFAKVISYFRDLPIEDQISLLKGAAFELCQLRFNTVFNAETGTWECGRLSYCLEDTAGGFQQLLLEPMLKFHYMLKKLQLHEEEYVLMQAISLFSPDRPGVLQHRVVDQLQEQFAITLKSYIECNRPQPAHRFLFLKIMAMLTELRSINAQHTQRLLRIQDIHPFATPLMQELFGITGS

[4] = Lipophilicity, log D of the compound; type: physicochemical; conditions: octanol/water
Mus musculus [5] = experiment: Reduction in triglyceride level in mouse plasma at 10 mg/kg,po after 18 hrs by lipid tolerance test; type: functional
Mus musculus [6] = experiment: Reduction in triglyceride level in mouse plasma at 30 mg/kg, po after 18 hrs by lipid tolerance test; type: functional
[7] = Solubility of the compound at pH 7; type: physicochemical; conditions: buffer
[8] = target: Voltage-gated inwardly rectifying potassium channel KCNH2 (Homo sapiens, UniProt Q12809); experiment: Inhibition of MK499 binding to human ERG
Rattus norvegicus = experiment: Intrinsic clearance Wistar Han rat at 1 mg/kg, iv; type: ADME, organism-based; conditions: in vivo
[9] = target: T3, Diacylglycerol O-acyltransferase 1 (Mus musculus, UniProt Q9Z2A7); experiment: Inhibition of mouse DGAT1 assessed as inhibition of triglyceride formation
T3 sequence (Q9Z2A7 whole entry): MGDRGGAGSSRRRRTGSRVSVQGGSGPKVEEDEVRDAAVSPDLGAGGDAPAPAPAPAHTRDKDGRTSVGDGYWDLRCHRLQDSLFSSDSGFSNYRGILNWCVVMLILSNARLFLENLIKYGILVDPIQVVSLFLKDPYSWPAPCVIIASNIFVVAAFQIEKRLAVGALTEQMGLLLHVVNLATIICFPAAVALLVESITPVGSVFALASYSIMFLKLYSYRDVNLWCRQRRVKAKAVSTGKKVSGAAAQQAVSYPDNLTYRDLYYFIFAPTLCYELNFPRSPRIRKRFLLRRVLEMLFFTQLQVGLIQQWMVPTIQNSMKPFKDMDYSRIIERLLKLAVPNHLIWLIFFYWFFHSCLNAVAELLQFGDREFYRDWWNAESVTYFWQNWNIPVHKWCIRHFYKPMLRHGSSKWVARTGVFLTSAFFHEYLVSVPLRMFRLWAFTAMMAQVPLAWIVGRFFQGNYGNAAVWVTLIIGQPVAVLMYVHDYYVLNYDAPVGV

Voltage-gated inwardly rectifying potassium channel KCNH2, sequence (Q12809 whole entry): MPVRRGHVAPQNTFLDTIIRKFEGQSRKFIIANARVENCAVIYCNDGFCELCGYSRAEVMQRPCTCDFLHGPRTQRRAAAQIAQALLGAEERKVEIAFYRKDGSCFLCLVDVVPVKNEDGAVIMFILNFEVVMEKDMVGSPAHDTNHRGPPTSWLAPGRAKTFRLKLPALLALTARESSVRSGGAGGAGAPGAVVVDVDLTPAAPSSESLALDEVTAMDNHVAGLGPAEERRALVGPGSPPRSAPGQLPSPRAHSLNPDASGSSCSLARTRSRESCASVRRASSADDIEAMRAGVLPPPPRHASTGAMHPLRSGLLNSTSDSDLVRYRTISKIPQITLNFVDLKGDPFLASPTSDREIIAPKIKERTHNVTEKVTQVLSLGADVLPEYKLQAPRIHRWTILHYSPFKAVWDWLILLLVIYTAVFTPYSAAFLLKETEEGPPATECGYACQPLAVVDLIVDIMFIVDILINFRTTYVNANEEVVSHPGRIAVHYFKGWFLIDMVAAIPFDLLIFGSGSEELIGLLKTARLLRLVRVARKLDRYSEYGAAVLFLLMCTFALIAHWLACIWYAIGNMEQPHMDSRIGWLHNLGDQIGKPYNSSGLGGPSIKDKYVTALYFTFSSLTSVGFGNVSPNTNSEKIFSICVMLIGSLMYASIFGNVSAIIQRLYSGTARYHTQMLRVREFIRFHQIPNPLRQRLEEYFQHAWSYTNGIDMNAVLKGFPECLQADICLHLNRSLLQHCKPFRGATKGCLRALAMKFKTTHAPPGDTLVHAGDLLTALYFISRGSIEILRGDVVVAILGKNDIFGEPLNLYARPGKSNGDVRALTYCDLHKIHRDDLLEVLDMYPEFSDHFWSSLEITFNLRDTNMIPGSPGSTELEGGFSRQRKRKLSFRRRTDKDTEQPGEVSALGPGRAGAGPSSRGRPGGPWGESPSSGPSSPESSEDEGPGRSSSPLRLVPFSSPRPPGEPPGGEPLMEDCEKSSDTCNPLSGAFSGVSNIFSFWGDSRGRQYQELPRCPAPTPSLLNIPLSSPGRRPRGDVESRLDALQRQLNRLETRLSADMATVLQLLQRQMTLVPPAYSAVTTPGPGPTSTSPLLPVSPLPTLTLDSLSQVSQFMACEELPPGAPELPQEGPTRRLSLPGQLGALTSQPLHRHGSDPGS
Cytochrome P450 3A4, sequence (P08684 whole entry): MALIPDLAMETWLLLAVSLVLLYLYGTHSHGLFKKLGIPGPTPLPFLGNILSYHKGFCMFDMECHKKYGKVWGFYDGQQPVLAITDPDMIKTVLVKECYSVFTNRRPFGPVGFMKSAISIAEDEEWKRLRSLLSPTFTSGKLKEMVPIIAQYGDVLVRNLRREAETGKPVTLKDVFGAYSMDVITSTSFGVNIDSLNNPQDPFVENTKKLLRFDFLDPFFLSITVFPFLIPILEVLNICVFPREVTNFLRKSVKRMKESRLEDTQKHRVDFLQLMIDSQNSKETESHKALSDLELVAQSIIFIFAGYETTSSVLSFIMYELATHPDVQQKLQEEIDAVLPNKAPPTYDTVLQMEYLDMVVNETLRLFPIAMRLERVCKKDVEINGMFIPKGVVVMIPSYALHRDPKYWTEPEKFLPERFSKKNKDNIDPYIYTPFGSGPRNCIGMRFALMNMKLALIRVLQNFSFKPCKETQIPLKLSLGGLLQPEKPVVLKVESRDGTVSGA
Cytochrome P450 2C9, sequence (P11712 whole entry): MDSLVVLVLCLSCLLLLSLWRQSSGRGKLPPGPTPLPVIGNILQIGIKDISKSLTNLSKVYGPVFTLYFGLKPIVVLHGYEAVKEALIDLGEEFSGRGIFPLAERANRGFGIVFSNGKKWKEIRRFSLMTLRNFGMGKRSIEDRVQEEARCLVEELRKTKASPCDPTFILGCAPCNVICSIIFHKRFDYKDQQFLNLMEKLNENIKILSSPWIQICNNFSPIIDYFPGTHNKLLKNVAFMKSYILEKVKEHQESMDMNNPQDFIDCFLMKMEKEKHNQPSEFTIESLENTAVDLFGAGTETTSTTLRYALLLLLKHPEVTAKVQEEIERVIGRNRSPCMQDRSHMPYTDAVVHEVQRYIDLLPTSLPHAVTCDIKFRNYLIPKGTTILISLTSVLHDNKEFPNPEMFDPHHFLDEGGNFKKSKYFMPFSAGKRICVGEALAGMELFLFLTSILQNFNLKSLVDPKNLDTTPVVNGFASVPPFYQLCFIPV

Row | SMILES | IC50 [1] [µM] | IC50 (Cytochrome P450 2C9) [µM] | solubility ([2]; read-out: solubility) [µM] | IC50 (Cytochrome P450 3A4) [µM] | IC50 [3] [µM] | logD ([4]; read-out: logD) | solubility ([7]; read-out: solubility) [µM] | IC50 [8] [µM] | other results
1 | O=C1OC2(CCN(c3ccc(-c4nc5cc(Cl)ccc5[nH]4)cn3)CC2)c2cnccc21 | 0.066 | – | – | – | – | – | – | – | –
2 | FC(F)(F)c1ccc2[nH]c(-c3ccc(N4CCC(c5ccccc5)(c5ccccc5)CC4)nc3)nc2c1 | 1.64 | – | – | – | – | – | – | – | –
3 | O=C(O)C[C@@H]1COC2(CCN(c3ccc(-c4nc5cc(C(F)(F)F)ccc5[nH]4)cn3)CC2)C1 | – | > 50 | 171 (≈ 78.7 µg/mL) | > 50 | > 30 | 1.44 | 158 (≈ 72.8 µg/mL) | – | inhibition in vivo at 10 mg/kg (Mus musculus [5]): 32%; inhibition in vivo at 30 mg/kg (Mus musculus [6]): 54%
4 | O=C(O)C1CCC2(CCN(c3ccc(-c4nc5cc(C(F)(F)F)ccc5[nH]4)cn3)CC2)CO1 (stereo unspecified) | 0.364 | – | 167 (≈ 76.9 µg/mL) | – | – | 1.54 | 154 (≈ 70.9 µg/mL) | – | –
5 | Clc1ccc2[nH]c(-c3ccc(N4C[C@@H]5C[C@H]4CN5c4ccccc4)nc3)nc2c1 | > 10 | – | – | – | – | – | – | – | –
6 | O=C(O)C1CCC2(CCN(c3ccc(-c4nc5cc(C(F)(F)F)ccc5[nH]4)cn3)CC2)OC1 (stereo unspecified) | – | > 50 | 174 (≈ 80.1 µg/mL) | > 50 | > 30 | 1.52 | 163 (≈ 75.1 µg/mL) | 14.7 | –
7 | FC(F)(F)c1ccc2[nH]c(-c3ccc(N4CCC(c5ccccn5)CC4)nc3)nc2c1 | 0.062 | – | – | – | – | – | – | – | –
8 | FC(F)(F)c1ccc2[nH]c(-c3ccc(N4CCC5(CC4)OC(Cc4cc(Cl)cc(Cl)c4)c4ccccc45)nc3)nc2c1 (stereo unspecified) | 8.7 | – | – | – | – | – | – | – | –
9 | O=C(O)C[C@H]1COC2(CCN(c3ccc(-c4nc5cc(C(F)(F)F)ccc5[nH]4)cn3)CC2)C1 | – | > 50 | 170 (≈ 78.3 µg/mL) | > 50 | > 30 | 1.45 | 153 (≈ 70.4 µg/mL) | – | –
10 | O=C1OC2(CCN(c3ccc(-c4nc5cc(Cl)ccc5[nH]4)cn3)CC2)c2ncccc21 | 0.01 | 3.4 | < 10 | – | – | – | – | – | –
11 | N#Cc1ccc(N2C(=O)NC3(CCN(c4ccc(-c5nc6cc(C(F)(F)F)ccc6[nH]5)cn4)CC3)C2=O)cc1 | 0.377 | – | – | – | – | – | – | – | –
12 | O=C1OC2(CCN(c3ccc(-c4nc5cc(Cl)ccc5[nH]4)cn3)CC2)c2ccccc21 | 0.052 | – | – | – | – | – | – | – | –
13 | O=C(O)c1ccc2c(c1)C(=O)OC21CCN(c2ccc(-c3nc4cc(C(F)(F)F)ccc4[nH]3)cn2)CC1 | – | – | < 10 | – | – | – | – | 0.56 | –
14 | Cc1cccc(Cl)c1NC(=O)N1CCN(c2ccc(-c3nc4cc(C(F)(F)F)ccc4[nH]3)cn2)CC1 | 0.089 | – | – | – | – | – | – | – | –
15 | O=S1(=O)CCC(N2CCN(c3ccc(-c4nc5cc(C(F)(F)F)ccc5[nH]4)cn3)CC2)C1 (stereo unspecified) | 0.131 | – | – | – | – | – | – | – | –
16 | CS(=O)(=O)C1CCN(c2ccc(-c3nc4cc(C(F)(F)F)ccc4[nH]3)cn2)CC1 | 0.216 | – | – | – | – | – | – | – | –
17 | Clc1ccc2[nH]c(-c3ccc(N4CCC5(CC4)OCc4ccccc45)nc3)nc2c1 | 0.137 | – | – | – | – | – | – | – | –
18 | O=C(O)CC1CCC2(CC1)CCN(c1ccc(-c3nc4cc(C(F)(F)F)ccc4[nH]3)cn1)CC2 | 0.006 | 10.8 | < 4 | 6.4 | > 30 | 1.76 | 45 (≈ 21.3 µg/mL) | – | –
19 | O=C1OC2(CCN(c3ccc(-c4nc5cc(C(F)(F)F)ccc5[nH]4)cn3)CC2)CN1c1ccccc1 | 1.41 | – | – | – | – | – | – | – | –
20 | O=C(O)CN1CCC2(CC1)CCN(c1ccc(-c3nc4cc(C(F)(F)F)ccc4[nH]3)cn1)CC2 | > 10 | > 50 | 207 (≈ 98 µg/mL) | > 50 | > 30 | 1.38 | 168 (≈ 79.5 µg/mL) | 4.8 | –
21 | O=C(O)CC1CCC2(CCN(c3ccc(-c4nc5cc(C(F)(F)F)ccc5[nH]4)cn3)CC2)OC1 (racemic) | – | > 50 | 179 (≈ 84.9 µg/mL) | > 50 | > 30 | 1.52 | 172 (≈ 81.6 µg/mL) | 7.8 | –
22 | O=C(O)CC1CCOC2(CCN(c3ccc(-c4nc5cc(C(F)(F)F)ccc5[nH]4)cn3)CC2)C1 (racemic) | – | > 50 | 185 (≈ 87.8 µg/mL) | > 50 | > 30 | 1.43 | 184 (≈ 87.3 µg/mL) | – | –
23 | O=C(O)CC1CCC2(CCN(c3ccc(-c4nc5cc(C(F)(F)F)ccc5[nH]4)cn3)CC2)O1 (racemic) | – | > 50 | 170 (≈ 78.3 µg/mL) | > 50 | > 30 | 1.55 | 149 (≈ 68.6 µg/mL) | > 60 | CL (Rattus norvegicus): 34.2 mL/min/kg
24 | O=C(O)CC1COC2(CCN(c3ccc(-c4nc5cc(C(F)(F)F)ccc5[nH]4)cn3)CC2)C1 (racemic) | – | > 50 | 170 (≈ 78.3 µg/mL) | > 50 | > 30 | 1.51 | 182 (≈ 83.8 µg/mL) | – | IC50 [9]: 0.178 µM
25 | O=C(O)CC1CCC2(CCN(c3ccc(-c4nc5cc(C(F)(F)F)ccc5[nH]4)cn3)CC2)OC1 (single isomer, unassigned; ent B) | – | 25.6 | – | 13.3 | > 30 | – | – | 1.2 | –
26 | O=C(O)CC1CCC2(CCN(c3ccc(-c4nc5cc(C(F)(F)F)ccc5[nH]4)cn3)CC2)O1 (single isomer, unassigned; form 1) | – | – | – | – | – | – | – | 16 | solubility [2]: > 200 µM; logD [4]: 1.52; solubility [7]: 190 µM (≈ 87.5 µg/mL)
27 | O=C(O)CC1CCC2(CCN(c3ccc(-c4nc5cc(C(F)(F)F)ccc5[nH]4)cn3)CC2)O1 (single isomer, unassigned; form 2) | – | 39.5 | – | > 50 | > 30 | – | – | 17.4 | solubility [2]: 163 µM (≈ 75.1 µg/mL); logD [4]: 1.58; solubility [7]: 147 µM (≈ 67.7 µg/mL)
28 | O=C(O)CC1CCC2(CCN(c3ccc(-c4nc5cc(C(F)(F)F)ccc5[nH]4)cn3)CC2)OC1 (stereo in doubt) | – | 20.4 | – | 19.5 | > 30 | – | – | 0.8 | –
29 | O=C(O)CC1CCOC2(CCN(c3ccc(-c4nc5cc(C(F)(F)F)ccc5[nH]4)cn3)CC2)C1 (stereo in doubt; form 1) | – | 45.2 | – | > 50 | > 30 | – | – | – | solubility [2]: 173 µM (≈ 82.1 µg/mL); logD [4]: 1.48; solubility [7]: 168 µM (≈ 79.7 µg/mL)
30 | O=C(O)CC1CCOC2(CCN(c3ccc(-c4nc5cc(C(F)(F)F)ccc5[nH]4)cn3)CC2)C1 (stereo in doubt; form 2) | – | 35.1 | – | > 50 | > 30 | – | – | – | solubility [2]: 169 µM (≈ 80.2 µg/mL); logD [4]: 1.47; solubility [7]: 174 µM (≈ 82.6 µg/mL)
